Laboratory results reported in ChEMBL document CHEMBL4428094, “Insights into the structure-activity relationship of the anticancer compound ZJ-101, a derivative of marine natural product superstolide A: A role played by the lactone moiety” (Bioorg Med Chem Lett, 2016).

Legend:
Format in all cases: functional, cell-based
HeLa = assay: Antiproliferative activity against human HeLa cells assessed as reduction in cell viability by Alamar blue assay
HCT-116 = assay: Antiproliferative activity against human HCT116 cells assessed as reduction in cell viability by Alamar blue assay
SF-295 = assay: Antiproliferative activity against human SF295 cells assessed as reduction in cell viability by Alamar blue assay
MDA-MB-231 = assay: Antiproliferative activity against human MDA-MB-231 cells assessed as reduction in cell viability by Alamar blue assay
MCF7 = assay: Antiproliferative activity against human MCF7 cells assessed as reduction in cell viability by Alamar blue assay

Compound CC(=O)N[C@H](C)[C@@H](O)[C@@H](C)[C@@H]1OC(=O)/C=C/C=C(C)\C=C\[C@]2(C)CCC=C[C@@H]2/C=C(C)/C=C/[C@H]1C has an IC50 (HeLa) of 75.4 nM, an IC50 (HCT-116) of 94 nM and an IC50 (SF-295) of 63.5 nM.

CC(=O)N[C@H](C)[C@@H](O)[C@@H](C)[C@@H]1NC(=O)/C=C/C=C(C)\C=C\[C@]2(C)CCC=C[C@@H]2/C=C(C)/C=C/[C@H]1C gave an IC50 (MDA-MB-231) of 584 nM, an IC50 (HeLa) of 597 nM and an IC50 (HCT-116) of 746 nM. The IC50 (SF-295) was 716 nM and the IC50 (MCF7) was 448 nM.
